Experimental data from PubChem BioAssay AID1626 (SRMLSC, 2009).

Tested on: M. tuberculosis H37Rv growth inhibition
Assay: M. tuberculosis H37Rv growth inhibitors, H37Rv strain (AID 1626)
Conditions: for IC90: measured here: IC90 against H37Rv; for CC50: measured here: Vero cell cytotoxicity

SMILES | IC50 [µM] | IC90 [µM] | CC50 [µM]
Cc1cc(NC(=O)c2ccccc2)n(-c2nc3ccccc3[nH]2)n1 | 60.4 | > 100 | 27.9
COc1cc(OC)c2c(-c3ccccc3)cc(=O)oc2c1C(CCN1CCCCC1)c1ccc(N(C)C)cc1 (configuration not stated) | 8.78 | 12.1 | 20.4
CCOC(=O)c1ccc(NC(=O)COc2ccccc2CNCCc2ccccc2)cc1 | 4.77 | 6.88 | 25.2
COc1cc(CNc2ccc(N3CCN(C(C)=O)CC3)cc2)ccc1OCc1ccc(F)cc1 |  |  | > 40
CCOCC(=O)Nc1ccc(Br)c(C)c1 | 9.8 | > 100 | 
Cc1cc(C)c(C2C3=C(Nc4c2c(C)nn4-c2ccccn2)c2ccccc2C3=O)c(C)c1 (configuration not stated) | 5.63 | 8.83 | > 40
CC1(C)CC(NC(=O)c2sc3cc(Cl)ccc3c2Cl)CC(C)(C)N1 |  | > 100 | 12.6
CCOC(=O)C1CCN(c2nc3cc(OC)ccc3cc2C#N)CC1 | 8.91 | 14.2 | 
COc1ccc(OCCn2c(NC(=O)c3ccco3)nc3ccccc32)cc1 |  | > 100 | 33.2
CC1Cc2ccccc2N1C(=O)COC(=O)c1ccc(Br)o1 (configuration not stated) | 16 | > 100 | 
O=c1c2cc(Cl)ccc2oc2nc3n(c(=O)c12)CCCS3 | 0.803 | 8.71 | 
CCOC(=O)Oc1ccc2oc(C)c(C(=O)OCCOC)c2c1 | 26.1 | > 100 | 
C=CCn1c(O)c(C(CC)=Nc2ccc3c(c2)CCC3)c(=O)[nH]c1=O | 17.8 | > 100 | 
CC(=O)OCCNc1cc(SCc2ccco2)c2nonc2c1[N+](=O)[O-] | 0.657 | 1.66 | 
COc1cccc(/C=C2\Sc3ccc(C(=O)NCc4cccnc4)cc3N(C)C2=O)c1 | 2.83 | 6.21 | > 40
COC(=O)c1c(NC(=O)CC2SC(N)=NC2=O)sc2c1CCC(C(C)(C)C)C2 (configuration not stated) | 16.4 | 24 | 35
Cc1c(Cc2ccccc2)c(NCCCO)n2c(nc3ccccc32)c1C#N | 2.9 | 3.35 | 
COC(=O)CSc1nc2c(c(-c3ccco3)c1C#N)CCCC2 | 3.08 | 3.39 | 
O=C(Nc1nc(-c2ccccn2)cs1)c1ccc(Br)s1 | < 0.195 | 0.585 | 2.73
CCN(CCCCN1C(=O)c2ccccc2C1=O)c1ccc2c(c1)C(=O)N(C)C2=O | 12 | > 100 | 
COc1ccc(C(=O)OCCNC(=O)c2c(Cl)nc3ccccn23)cc1 | 5.08 | 15.8 | 

SMILES | IC50 [µM] | IC90 [µM] | CC50 [µM]
CC(C)(C)c1ccccc1OCCOCCN1CCCCCC1 | 57.8 | > 100 | 
Cc1ccc(C(=O)N/C(=C\c2ccc(-c3ccc(Br)cc3)o2)C(=O)NCCCN(C)C)cc1 | 15.5 | 18.2 | 6.45
Nc1nc(CN2CCN(C(c3ccccc3)c3ccccc3)CC2)nc(Nc2ccccc2)n1 | 36.4 | > 100 | > 40
Cc1ccccc1OCc1n(CC(=O)OC2CC(C)CCC2C(C)C)c2ccccc2[n+]1C (configuration not stated) | 3.74 | 5.17 | 24.4
CC(C)c1ccc(Nc2nnc(SCC(=O)Nc3ncc(S(=O)(=O)c4ccc([N+](=O)[O-])cc4)s3)s2)cc1 | 5.63 | 7.98 | 
COC(=O)c1ccnc(SCC(=O)c2ccccc2)c1 | 15.8 | 26.6 | 
CCOC(=O)Cn1c2c(c(-c3ccccc3OC)cc1=O)CCCC2 | 21.1 | > 100 | 
CCOc1ccc2nc(NC(=O)CSc3nc(SC)ns3)sc2c1 | 2.95 | > 100 | > 40
COc1ccc(/C=C2\Sc3ccc(C(=O)NCc4cccnc4)cc3N(C)C2=O)cc1OC | 13 | 31.1 | 
C/C=C/C(=O)OCC(=O)Nc1ccc(OC)c(Cl)c1 | 20 | > 100 | 
Cc1ccc2nc(Cl)c(CNCc3ccccc3)cc2c1 | 5.64 | 14.1 | 
COC(=O)CCn1c(C)cc(C(=O)COc2ccccc2C(N)=O)c1C | 1.57 | 31.1 | > 40
c1ccc(N2CCN(c3nc(-c4ccccn4)nc4ccccc34)CC2)cc1 | 0.924 | 1.62 | 25.9
CCCCC(=O)OCC(=O)Nc1ccc(SC(F)F)cc1 |  | > 100 | 
CCC(=C(c1ccc(OC)cc1)c1ccc(OC)cc1)c1cn(CC(O)CN(CCO)CCO)c2ccccc12 (configuration not stated) | 12.5 | 13.6 | 26.5
NC1=NC[C@H](Cc2ccc(O)cc2)N1CCCCC1CCCCC1 | 5.33 | 7.7 | 
CCOC(=O)CNC(=O)CSc1nc(-c2ccccc2)ns1 | 1.48 | 3.2 | 
COc1ccc(/C=c2\s/c(=C\C(=O)C(C)(C)C)[nH]c2=O)cc1O | 5.62 | 7.63 | 25.3
Oc1c(Cl)cc(Cl)cc1/C=C/c1ccc2cccc(O)c2n1 | 3.06 | > 100 | 10.1
CCOC(=O)c1c(C)n(-c2ccc(C)cc2)c2ccc(OCC(O)CNCCCO)cc12 (configuration not stated) | 20.3 | 37.1 | 13
O=c1[nH][nH]c(-c2ccccc2O)c1C(C[N+](=O)[O-])c1ccc(Br)cc1 (configuration not stated) | 11.2 | 24.5 | 18.2

SMILES | IC50 [µM] | IC90 [µM] | CC50 [µM]
Cc1ccc2c(c1C)NC(=O)C21N2CCCC2C(C(=O)c2ccc3ccccc3c2)C12C(=O)Nc1ccccc12 (configuration not stated) | 39.3 | > 100 | > 40
CCCCCOC(=O)c1ccc(OC(=O)c2cncc(Br)c2)cc1 | 11.6 | > 100 | 
CCCn1c(NC(=O)c2cccc(C)c2C)nc2ccccc21 | 1 | 3.63 | 24.7
COc1ccc(C2=CC(c3c(C)nn(-c4ccccc4)c3Cl)n3nnnc3N2)cc1OC (configuration not stated) | 8.88 | 14.1 | 
CCN1CCN(Cc2ccc(NC(=O)c3ccc(C)c(NC(=O)c4c[nH]c5cc(C(F)(F)F)ccc5c4=O)c3)cc2C(F)(F)F)CC1 | 3.86 | 4.72 | 3.28
O=C(Nc1ncc(Cc2ccc(C(F)(F)F)cc2)s1)c1ccc(-c2cccc([N+](=O)[O-])c2)o1 | 60.2 | > 100 | > 40
CCn1ccnc1CN(C)Cc1cn(-c2ccc(C)cc2)nc1-c1cccc(C)c1 | 2.73 | 3.64 | > 40
CC(=O)/C=C(\C)Nc1ccccc1O | 0.992 | 2.44 | > 40
O=C(CSc1nnc(-c2ccco2)o1)c1ccccc1Cl |  | > 100 | 
CC(=O)Nc1cccc(C(=O)/C=C/c2ccc(C)cc2)c1 | 33.7 | > 100 | 13.7
O=C(CSc1ncn[nH]1)Nc1ccc(Br)cc1F | 29.5 | > 100 | > 40
CCC(=O)Nc1nc(-c2cc([N+](=O)[O-])cs2)cs1 | < 0.195 | > 100 | 
CCCSc1cc(N2CCN(C)CC2)nc(-c2ccc(OC)cc2)n1 | 10.9 | 12.2 | > 40
Cn1cc(C(=O)CCl)c2ccccc21 | 1.6 | 4.01 | 10.9
O=C(/C=C/c1ccc(-c2ccc(F)cc2)o1)N1CCCC1 | 14 | > 100 | 
O=C(NC12CC3CC(CC(C3)C1)C2)c1ccc(-c2ccc(Br)cc2)o1 | 6.56 | 12.7 | 35.3
Cn1c(C(C#N)C(=O)c2ccco2)nc2ccccc21 (configuration not stated) | 6.99 | > 100 | 
CC(C)(C)c1cc(NCCCn2ccnc2)n2ncc(-c3ccc(Cl)cc3)c2n1 | 0.939 | 1.43 | 22.3
CCCCOC(=O)c1ccc(NC(=O)C(=O)NCCN(CC)CC)cc1 | 35.7 | > 100 | 
O=C(Nc1ccccc1Cl)Oc1ccc2ccccc2c1 |  | > 100 | 
Cc1ccc(N=C/C(C(=O)C(F)(F)F)=C(\O)c2ccco2)cc1Cl |  | > 100 | 

SMILES | IC50 [µM] | IC90 [µM] | CC50 [µM]
NC(=O)c1ccc(NC(=O)COC(=O)c2c3c(nc4ccccc24)/C(=C\c2cccs2)CCC3)cc1 | 0.572 | 9.77 | 7.95
CSc1ccc(C(=O)C2CCCN(Cc3cc4ccccc4[nH]3)C2)cc1 (configuration not stated) | 2.43 | 2.98 | > 40
COCc1ccc(O)c2ncccc12 | 10.9 | 12 | 9.76
COc1cc(N=c2c([N+](=O)[O-])nn(-c3ccc4c(c3)OCCO4)n2O)cc(OC)c1 |  |  | 16.2
COC(=O)C(C)Oc1ccc(-c2nccc(-c3cccs3)n2)cc1 (configuration not stated) | 0.829 | 2.74 | 
Oc1ccccc1-c1nc(/C=C/c2ccccc2)nn1-c1ccccc1 | 16.3 | > 100 | 
O=C(CCSc1ccc(Cl)cc1)c1cccs1 |  | > 100 | 
CCOC(=O)c1cnn(-c2nc3c(C)cccc3s2)c1C(F)(F)F | 54.6 | > 100 | > 40
O=[N+]([O-])c1cc(C(F)(F)F)ccc1Oc1cccnc1[N+](=O)[O-] | 1.54 | 1.73 | 
COc1cccc(OCCNC(=O)c2cc([N+](=O)[O-])cc([N+](=O)[O-])c2)c1 | < 0.195 | 0.747 | 
O=C(Nc1nc(-c2cc(F)ccc2F)cs1)c1ccccn1 | 3.8 | 67.8 | 21.2
COc1ccc(CCNC(=O)NC23CC4CC(CC(C4)C2)C3)cc1 | 12.9 | > 100 | > 40
Cc1cc(Cl)ccc1OCCCC(=O)NO | 28.6 | > 100 | 35.7
CS(=O)(=O)Cc1nc2ccccc2oc1=O | 1.45 | 2.01 | > 40
Cc1nc(N2CCN(Cc3ccc4c(c3)OCO4)CC2)c2cc(-c3ccccc3)sc2n1 | 5.39 | 6.08 | > 40
CCOC(=O)CSc1nc(N)c(C#N)c(-c2cccs2)c1C#N | 1.59 | 3.27 | 
CCCCCn1c(=O)c(C(=O)Nc2nc3ccccc3[nH]2)c(O)c2ccccc21 | 0.706 | 0.757 | 6.6
CCC(C)Nc1nc2c(C)cccn2c(=O)c1C=Nc1ccc(OC)cc1 (configuration not stated) | 52.4 | > 100 | 
Cc1ccc(NC(=O)c2ccc(CSc3nccc(C)n3)cc2)cc1 | 12.2 | > 100 | 
